Reference: patent publication US20260285850A1, “SUBSTITUTED OXAZOLIDINONES AND IMIDAZOLINONES AS HERBICIDES” (FMC CORPORATION, priority 2023, published 2026)

Key:
Type in all cases: in vivo
[1] = test system: barnyardgrass (Echinochloa crus-galli); assay: Test A preemergence soil spray, visual injury rating 0-100; details: 10 days, 0 = no effect, 100 = complete control
Source text: (§1) Seeds of plant species selected from barnyardgrass (Echinochloa crus-galli), blackgrass (Alopecurus myosuroides), corn (Zea mays), foxtail, giant (giant foxtail, Setaria faberi), green foxtail (Setaria viridis), goosegrass (Eleusine indica), kochia (Bassia scoparia), oat, wild (wild oat, Avena fatua), palmer (palmer amaranth, palmer pigweed, Amaranthus palmeri), ragweed (common ragweed, Ambrosia artemisiifolia), ryegrass, Italian (italian ryegrass, Lolium multiflorum), soybean (Glycine max) and wheat (Triticum aestivum) were planted into a blend of loam soil and sand and treated preemergence with a directed soil spray using test chemicals formulated in a non-phytotoxic solvent mixture which included a surfactant.
(§2) At the same time, plants selected from these crops and weed species and also galium (catchweed bedstraw, Galium aparine) and horseweed (Erigeron canadensis) were planted in pots containing the same blend of loam soil and sand and treated with postemergence applications of test chemicals formulated in the same manner. Plants ranged in height from 2 to 10 cm and were in the one- to two-leaf stage for the postemergence treatment. Treated plants and untreated controls were maintained in a greenhouse for 10 days, after which time all treated plants were compared to untreated controls and visually evaluated for injury. Plant response ratings, summarized in Table A, are based on a 0 to 100 scale where 0 is no effect and 100 is complete control. A dash (-) response means no test result.

[2] = test system: blackgrass (Alopecurus myosuroides); assay: as above; details: 10 days, 0 = no effect, 100 = complete control
Source text: as §1, §2

corn (Zea mays) [3] = assay: as above; details: 10 days, 0 = no effect, 100 = complete control
Source text: as §1, §2

[4] = test system: green foxtail (Setaria viridis); assay: as above; details: 10 days, 0 = no effect, 100 = complete control
Source text: as §1, §2

kochia (Bassia scoparia) [5] = assay: as above; details: 10 days, 0 = no effect, 100 = complete control
Source text: as §1, §2

[6] = test system: oat, wild (wild oat, Avena fatua); assay: as above; details: 10 days, 0 = no effect, 100 = complete control
Source text: as §1, §2

[7] = test system: palmer (palmer amaranth, palmer pigweed, Amaranthus palmeri); assay: as above; details: 10 days, 0 = no effect, 100 = complete control
Source text: as §1, §2

[8] = test system: ragweed (common ragweed, Ambrosia artemisiifolia); assay: as above; details: 10 days, 0 = no effect, 100 = complete control
Source text: as §1, §2

[9] = test system: ryegrass, Italian (italian ryegrass, Lolium multiflorum); assay: as above; details: 10 days, 0 = no effect, 100 = complete control
Source text: as §1, §2

soybean (Glycine max) [10] = assay: as above; details: 10 days, 0 = no effect, 100 = complete control
Source text: as §1, §2

[11] = test system: wheat (Triticum aestivum); assay: as above; details: 10 days, 0 = no effect, 100 = complete control
Source text: as §1, §2

[12] = test system: barnyardgrass (Echinochloa crus-galli); assay: Test A postemergence application, visual injury rating 0-100; details: 10 days
Source text: as §1, §2

[13] = test system: blackgrass (Alopecurus myosuroides); assay: as above; details: 10 days
Source text: as §1, §2

corn (Zea mays) [14] = assay: as above; details: 10 days
Source text: as §1, §2

[15] = test system: green foxtail (Setaria viridis); assay: as above; details: 10 days
Source text: as §1, §2

[16] = test system: horseweed (Erigeron canadensis); assay: as above; details: 10 days
Source text: as §1, §2

kochia (Bassia scoparia) [17] = assay: as above; details: 10 days
Source text: as §1, §2

[18] = test system: oat, wild (wild oat, Avena fatua); assay: as above; details: 10 days
Source text: as §1, §2

[19] = test system: palmer (palmer amaranth, palmer pigweed, Amaranthus palmeri); assay: as above; details: 10 days
Source text: as §1, §2

[20] = test system: ragweed (common ragweed, Ambrosia artemisiifolia); assay: as above; details: 10 days
Source text: as §1, §2

[21] = test system: ryegrass, Italian (italian ryegrass, Lolium multiflorum); assay: as above; details: 10 days
Source text: as §1, §2

soybean (Glycine max) [22] = assay: as above; details: 10 days
Source text: as §1, §2

[23] = test system: wheat (Triticum aestivum); assay: as above; details: 10 days
Source text: as §1, §2

[24] = test system: barnyardgrass (Echinochloa crusgalli); assay: Test B flooded paddy test, visual plant response rating 0-100; details: 250 g ai/ha, Flood, applied to paddy water, evaluated after 13 days
Summary of the method: (§3)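 Greenhouse, 13 d. Seedlings at 2-leaf stage, pots flooded to 3 cm, compound delivered into floodwater, water level held constant. Evaluated visually relative to controls.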

[25] = test system: ducksalad (Heteranthera limosa); assay: as above; details: 250 g ai/ha, Flood, applied to paddy water, evaluated after 13 days
Summary of the method: as §3

rice (Oryza sativa) = assay: as above; details: 250 g ai/ha, Flood, applied to paddy water, evaluated after 13 days
Summary of the method: as §3

[26] = test system: sedge, umbrella (small-flower umbrella sedge, Cyperus difformis); assay: as above; details: 250 g ai/ha, Flood, applied to paddy water, evaluated after 13 days
Summary of the method: as §3

[27] = 31 g ai/ha, postemergence, 0 = no effect, 100 = complete control
[28] = Postemergence, 125 g ai/ha, 0 is no effect, 100 is complete control

Q: Which “Barnyardgrass plant response rating (0-100)” value ([1]; 31 g ai/ha) does the source give for `CONC(=O)C1CC(NC(=O)C2(C)CN(c3cc(F)cc(F)c3)C(=O)O2)CO1` (centres unmarked) [Compound 39] here?
A: 0

Q: What about the “Barnyardgrass plant response rating (0 to 100 scale)” value ([1]; 125 g ai/ha) of the same molecule?
A: 20

Q: And the “Blackgrass plant response rating (0-100)” value ([2]; 31 g ai/ha)?
A: 0

Q: What about the “Blackgrass plant response rating (0 to 100 scale)” value ([2]; 125 g ai/ha) of the same molecule?
A: 60

Q: What about the “Corn plant response rating (0-100)” value (corn (Zea mays) [3]; 31 g ai/ha) of the same molecule?
A: 0

Q: What about the “Corn plant response rating (0 to 100 scale)” value (corn (Zea mays) [3]; 125 g ai/ha) of the same molecule?
A: 0

Q: What about the “Foxtail, Green plant response rating (0-100)” value ([4]; 31 g ai/ha) of the same molecule?
A: 0

Q: What about the “Foxtail, Green plant response rating (0 to 100 scale)” value ([4]; 125 g ai/ha) of the same molecule?
A: 0

Q: What about the “Kochia plant response rating (0-100)” value (kochia (Bassia scoparia) [5]; 31 g ai/ha) of the same molecule?
A: 0

Q: And the “Kochia plant response rating (0 to 100 scale)” value (kochia (Bassia scoparia) [5]; 125 g ai/ha)?
A: 20

Q: What about the “Oat, Wild plant response rating (0-100)” value ([6]; 31 g ai/ha) of the same molecule?
A: 0

Q: What about the “Oat, Wild plant response rating (0 to 100 scale)” value ([6]; 125 g ai/ha) of the same molecule?
A: 90

Q: What about the “Amaranth, Palmer plant response rating (0-100)” value ([7]; 31 g ai/ha) of the same molecule?
A: 0

Q: What about the “Amaranth, Palmer plant response rating (0 to 100 scale)” value ([7]; 125 g ai/ha) of the same molecule?
A: 0

Q: And the “Ragweed plant response rating (0-100)” value ([8]; 31 g ai/ha)?
A: 0

Q: And the “Ragweed plant response rating (0 to 100 scale)” value ([8]; 125 g ai/ha)?
A: 0

Q: What about the “Ryegrass, Italian plant response rating (0-100)” value ([9]; 31 g ai/ha) of the same molecule?
A: 0

Q: What about the “Ryegrass, Italian plant response rating (0 to 100 scale)” value ([9]; 125 g ai/ha) of the same molecule?
A: 40

Q: And the “Soybean plant response rating (0-100)” value (soybean (Glycine max) [10]; 31 g ai/ha)?
A: 0

Q: What about the “Soybean plant response rating (0 to 100 scale)” value (soybean (Glycine max) [10]; 125 g ai/ha) of the same molecule?
A: 10

Q: And the “Wheat plant response rating (0-100)” value ([11]; 31 g ai/ha)?
A: 0

Q: And the “Wheat plant response rating (0 to 100 scale)” value ([11]; 125 g ai/ha)?
A: 90

Q: And the “Barnyardgrass plant response rating (0-100)” value [12, 27]?
A: 10

Q: What about the “Barnyardgrass plant response rating (0 to 100 scale)” value [12, 28] of the same molecule?
A: 90

Q: And the “Blackgrass plant response rating (0-100)” value [13, 27]?
A: 90

Q: What about the “Blackgrass plant response rating (0 to 100 scale)” value [13, 28] of the same molecule?
A: 100

Q: What about the “Corn plant response rating (0-100)” value (corn (Zea mays) [14]; [27]) of the same molecule?
A: 0

Q: And the “Corn plant response rating (0 to 100 scale)” value (corn (Zea mays) [14]; [28])?
A: 100

Q: And the “Foxtail, Green plant response rating (0-100)” value [15, 27]?
A: 20

Q: What about the “Foxtail, Green plant response rating (0 to 100 scale)” value [15, 28] of the same molecule?
A: 90

Q: What about the “Horseweed plant response rating (0-100)” value [16, 27] of the same molecule?
A: 10

Q: What about the “Horseweed plant response rating (0 to 100 scale)” value [16, 28] of the same molecule?
A: 0

Q: What about the “Kochia plant response rating (0-100)” value (kochia (Bassia scoparia) [17]; [27]) of the same molecule?
A: 20

Q: And the “Kochia plant response rating (0 to 100 scale)” value (kochia (Bassia scoparia) [17]; [28])?
A: 50

Q: And the “Oat, Wild plant response rating (0-100)” value [18, 27]?
A: 90

Q: And the “Oat, Wild plant response rating (0 to 100 scale)” value [18, 28]?
A: 90

Q: And the “Amaranth, Palmer plant response rating (0-100)” value [19, 27]?
A: 0

Q: What about the “Amaranth, Palmer / Pigweed, Palmer plant response rating (0 to 100 scale)” value [19, 28] of the same molecule?
A: 20

Q: And the “Ragweed plant response rating (0-100)” value [20, 27]?
A: 0

Q: What about the “Ragweed plant response rating (0 to 100 scale)” value [20, 28] of the same molecule?
A: 20

Q: And the “Ryegrass, Italian plant response rating (0-100)” value [21, 27]?
A: 30

Q: What about the “Ryegrass, Italian plant response rating (0 to 100 scale)” value [21, 28] of the same molecule?
A: 80

Q: And the “Soybean plant response rating (0-100)” value (soybean (Glycine max) [22]; [27])?
A: 20

Q: What about the “Soybean plant response rating (0 to 100 scale)” value (soybean (Glycine max) [22]; [28]) of the same molecule?
A: 60

Q: What about the “Wheat plant response rating (0-100)” value [23, 27] of the same molecule?
A: 90

Q: What about the “Wheat plant response rating (0 to 100 scale)” value [23, 28] of the same molecule?
A: 90

Q: What about the “Plant response rating, Barnyardgrass (0 to 100 scale, 0 is no effect and 100 is complete control)” value [24] of the same molecule?
A: 0

Q: What about the “Plant response rating, Ducksalad (0 to 100 scale, 0 is no effect and 100 is complete control)” value [25] of the same molecule?
A: 0

Q: And the “Plant response rating, Rice (0 to 100 scale, 0 is no effect and 100 is complete control)” value (rice (Oryza sativa))?
A: 0

Q: And the “Plant response rating, Sedge, Umbrella (0 to 100 scale, 0 is no effect and 100 is complete control)” value [26]?
A: 0
